In US8063055B2, “Substituted pyridone compounds and methods of use” (Amgen Inc., priority 2007, dated 2011):
Like-named read-outs stand apart in the source and are kept apart here.

What was measured:
c-kit kinase enzyme = biological target: T1, c-kit kinase enzyme (Homo sapiens, UniProt P10721); assay: C-kit Homogeneous Time Resolved Fluorescent (HTRF) kinase assay; type: biochemical
T1 construct: (catalytic domain, N-terminal GST tagged, unphosphorylated)

[1] = system: SCF-stimulated UT-7 cells; conditions: Homo sapiens
Excerpt: SCF and GM-CSF Stimulated UT7 Proliferation/Survival Assay:
The purpose of this assay is to test the general anti-proliferative/cytotoxic effect of small molecule compounds on SCF or GM-CSF-stimulated UT-7 cells. Preventing SCF stimulated proliferation/survival is consistent with an on-mechanism effect whereas inhibition of GM-CSF driven proliferation/survival is indicative of off-target effects. UT-7 is a factor dependent human megakaryoblastic leukemia cell line that can be grown in either IL-3, GM-CSF, EPO or SCF (these cells have been confirmed to carry wild type c-kit receptor). Cells are maintained in growth media (IMDM, 10% HI-FBS, 1×PGS, 1 ng/mL GM-CSF). […] Small molecule compounds are first diluted in 100% DMSO, then diluted 1:4 in RT assay media. […] The treated cells are incubated in a 37° C. humidified incubator with 5% CO2 for 3 days. The amount of ATP is then measured as a surrogate marker for cell viability. […] The amount of SCF or GM-CSF stimulated viable cells in the presence of compound compared with in the presence of vehicle alone (HI control) is calculated using the formula: % control (POC)=(cpd−average LO)/(average HI−average LO)*100. Data (consisting of POC and inhibitor concentration in μM) is fitted to a 4-parameter equation (y=A+((B−A)/(1+((x/C)^D))), where A is the minimum y (POC) value, B is the maximum y (POC), C is the x (cpd concentration) at the point of inflection and D is the slope factor) using a Levenburg-Marquardt non-linear regression algorithm.

[2] = c-kit catalytic domain, biotinylated Her-2 peptide substrate, ATP, read-out: HTRF Fret enzyme assay data
[3] = UT7, 72 h, read-out: UT7 Proliferation cell assay data
[4] = HTRF Fret enzyme assay data, c-kit catalytic domain, biotinylated Her-2 peptide substrate, ATP
[5] = UT7, read-out: average IC50 value in the SCF stimulated UT7 proliferation and survival assay

T1 sequence (P10721 589-937 limits assumed): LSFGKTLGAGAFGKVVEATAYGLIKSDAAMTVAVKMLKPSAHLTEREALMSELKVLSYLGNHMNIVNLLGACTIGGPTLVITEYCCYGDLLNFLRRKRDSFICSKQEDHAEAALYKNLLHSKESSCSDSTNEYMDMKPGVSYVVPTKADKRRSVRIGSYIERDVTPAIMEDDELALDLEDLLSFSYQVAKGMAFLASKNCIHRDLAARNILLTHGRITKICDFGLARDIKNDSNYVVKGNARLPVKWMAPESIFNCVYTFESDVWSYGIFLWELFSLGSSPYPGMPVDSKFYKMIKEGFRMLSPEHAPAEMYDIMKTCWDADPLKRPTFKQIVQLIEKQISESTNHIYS

| SMILES | IC50 [1, 3] | IC50 (c-kit kinase enzyme; [4]) | also measured |
| --- | --- | --- | --- |
| Cc1ccn(-c2ccc(N3CCOCC3)cc2)c(=O)c1-c1ccc2nc(N)ncc2c1 [Example 34, 3-(2-aminoquinazolin-6-yl)-4-methyl-1-(4-morpholinophenyl)pyridin-2(1H)-one] | 0.072 µM | – | IC50 (c-kit kinase enzyme; [2]): 0.013 µM |
| CCOC(=O)CNc1ccc(-n2ccc(C)c(-c3ccc4nc(N)ncc4c3)c2=O)cc1 [Example 37, ethyl 2-(4-(3-(2-aminoquinazolin-6-yl)-4-methyl-2-oxopyridin-1(2H)-yl)phenylamino)acetate] | – | 0.181 µM | – |
| Cc1ccn(Cc2ccccc2)c(=O)c1-c1ccc2nc(N)ncc2c1 [Example 24, 3-(2-aminoquinazolin-6-yl)-1-benzyl-4-methylpyridin-2(1H)-one] | 0.013 µM | 0.006 µM | – |
| COc1cc(-n2ccc(C)c(-c3ccc4nc(N)ncc4c3)c2=O)cc(C(F)(F)F)c1 [Example 11, 3-(2-aminoquinazolin-6-yl)-1-(3-methoxy-5-(trifluoromethyl)phenyl)-4-methylpyridin-2(1H)-one] | 0.0588 µM | 0.0111 µM | – |
| Cc1ccn(-c2ccc(Cl)cc2)c(=O)c1-c1ccc2nc(N)ncc2c1 [Example 32, 3-(2-aminoquinazolin-6-yl)-1-(4-chlorophenyl)-4-methylpyridin-2(1H)-one] | 0.014 µM | – | IC50 (c-kit kinase enzyme; [2]): 0.02 µM |
| Cc1ccc(-n2ccc(C)c(-c3ccc4nc(N)ncc4c3)c2=O)cc1C [Example 13, 3-(2-amino-6-quinazolinyl)-1-(3,4-dimethylphenyl)-4-methyl-2(1H)-pyridinone] | 0.0054 µM | 0.00367 µM | – |
| Cc1ccn(CCCC(C)C)c(=O)c1-c1ccc2nc(N)ncc2c1 [Example 61, 3-(2-aminoquinazolin-6-yl)-4-methyl-1-(4-methylpentyl)pyridin-2(1H)-one] | 0.004 µM | 0.00112 µM | IC50 [1, 5]: ≤ 1 µM |
| Cc1ccn(-c2ccc(-c3ncco3)cc2)c(=O)c1-c1ccc2nc(N)ncc2c1 [Example 7, 3-(2-aminoquinazolin-6-yl)-4-methyl-1-(4-(oxazol-2-yl)phenyl)pyridin-2(1H)-one] | 0.0155 µM | 0.0216 µM | – |
| COC(=O)Cn1ccc(C)c(-c2ccc3nc(N)ncc3c2)c1=O [Example 51, methyl 2-(3-(2-aminoquinazolin-6-yl)-4-methyl-2-oxopyridin-1(2H)-yl)acetate] | – | 1.19 µM | – |
| CCCCn1ccc(C)c(-c2ccc3nc(N)ncc3c2)c1=O [Example 53, 3-(2-aminoquinazolin-6-yl)-1-butyl-4-methylpyridin-2(1H)-one] | – | 0.118 µM | – |
| Cc1cc(C)cc(-n2ccc(C)c(-c3ccc4nc(N)ncc4c3)c2=O)c1 [Example 8, 3-(2-aminoquinazolin-6-yl)-1-(3,5-dimethylphenyl)-4-methylpyridin-2(1H)-one] | 0.0501 µM | 0.0161 µM | – |
| Cc1ccn(-c2ccc(CN3CCOCC3)cc2)c(=O)c1-c1ccc2nc(N)ncc2c1 [Example 35, 3-(2-aminoquinazolin-6-yl)-4-methyl-1-(4-(morpholinomethyl)phenyl)pyridin-2(1H)-one] | 0.2 µM | 0.031 µM | – |
| Cc1ccn(-c2ccc(Cl)c(Cl)c2)c(=O)c1-c1ccc2nc(N)ncc2c1 [Example 40, 3-(2-aminoquinazolin-6-yl)-1-(3,4-dichlorophenyl)-4-methylpyridin-2(1H)-one] | 0.018 µM | 0.02 µM | – |
| Cc1ccn(-c2ccc3c(ccn3-c3ccc4[nH]ccc4c3)c2)c(=O)c1-c1ccc2nc(N)ncc2c1 [Example 26, 3-(2-amino-6-quinazolinyl)-1-(1′H-1,5′-biindol-5-yl)-4-methyl-2(1H)-pyridinone] | 0.011 µM | 0.002 µM | – |
| Cc1ccn(-c2ccc(C(C)C)cc2)c(=O)c1-c1ccc2nc(N)ncc2c1 [Example 27, 3-(2-aminoquinazolin-6-yl)-1-(4-isopropylphenyl)-4-methylpyridin-2(1H)-one] | 0.005 µM | 0.002 µM | – |
| Cc1ccn(-c2cccc(C#N)c2)c(=O)c1-c1ccc2nc(N)ncc2c1 [Example 9, 3-(3-(2-aminoquinazolin-6-yl)-4-methyl-2-oxopyridin-1(2H)-yl)benzonitrile] | 0.107 µM | 0.0888 µM | – |
| CC(C)=CCn1ccc(C)c(-c2ccc3nc(N)ncc3c2)c1=O [Example 54, 3-(2-aminoquinazolin-6-yl)-4-methyl-1-(3-methylbut-2-enyl)pyridin-2(1H)-one] | 0.012 µM | 0.0239 µM | IC50 [1, 5]: ≤ 1 µM |
| Cc1ccn(-c2ccc(F)c(Cl)c2)c(=O)c1-c1ccc2nc(N)ncc2c1 [Example 45, 3-(2-aminoquinazolin-6-yl)-1-(3-chloro-4-fluorophenyl)-4-methylpyridin-2(1H)-one] | 0.04 µM | 0.0989 µM | – |
| Cc1ccn(-c2ccc3[nH]c(C(F)(F)F)nc3c2)c(=O)c1-c1ccc2nc(N)ncc2c1 [Example 10, 3-(2-aminoquinazolin-6-yl)-4-methyl-1-(2-(trifluoromethyl)-1H-benzo[d]imidazol-5-yl)pyridin-2(1H)-one] | 0.189 µM | 0.0348 µM | – |

| SMILES | IC50 [1, 3] | IC50 (c-kit kinase enzyme; [4]) | also measured |
| --- | --- | --- | --- |
| Cc1ccn(-c2ccc(-n3cccc3)cc2)c(=O)c1-c1ccc2nc(N)ncc2c1 [Example 5, 1-(4-(1H-pyrrol-1-yl)phenyl)-3-(2-aminoquinazolin-6-yl)-4-methylpyridin-2(1H)-one] | 0.00483 µM | 0.00225 µM | IC50 [1, 5]: ≤ 1 µM |
| COc1ccc(-n2ccc(C)c(-c3ccc4nc(N)ncc4c3)c2=O)cc1 [Example 31, 3-(2-aminoquinazolin-6-yl)-1-(4-methoxyphenyl)-4-methylpyridin-2(1H)-one] | – | – | IC50 (c-kit kinase enzyme; [2]): 0.017 µM |
| Cc1ccn(-c2ccc3ncccc3c2)c(=O)c1-c1ccc2nc(N)ncc2c1 [Example 16, 3-(2-amino-6-quinazolinyl)-4-methyl-1-(6-quinolinyl)-2(1H)-pyridinone] | 0.0568 µM | 0.00529 µM | – |
| Cc1ccn(-c2cc(Cl)cc(Cl)c2)c(=O)c1-c1ccc2nc(N)ncc2c1 [Example 46, 3-(2-aminoquinazolin-6-yl)-1-(3,5-dichlorophenyl)-4-methylpyridin-2(1H)-one] | 0.035 µM | 0.044 µM | – |
| Cc1ccn(CCC(C)C)c(=O)c1-c1ccc2nc(N)ncc2c1 [Example 25, 3-(2-aminoquinazolin-6-yl)-1-isopentyl-4-methylpyridin-2(1H)-one] | 0.084 µM | 0.018 µM | – |
| CC(=O)N1CC(C)(C)c2ccc(-n3ccc(C)c(-c4ccc5nc(N)ncc5c4)c3=O)cc21 [Example 19, 1-(1-acetyl-3,3-dimethyl-2,3-dihydro-1H-indol-6-yl)-3-(2-amino-6-quinazolinyl)-4-methyl-2(1H)-pyridinone] | 0.226 µM | 0.00975 µM | – |
| CCCn1ccc(C)c(-c2ccc3nc(N)ncc3c2)c1=O [Example 50, 3-(2-aminoquinazolin-6-yl)-4-methyl-1-propylpyridin-2(1H)-one] | – | 0.315 µM | IC50 (c-kit kinase enzyme; average IC50 value, inhibition of the c-kit kinase enzyme in a human HTRF assay, 1.0 uM or less): ≤ 1 µM |
| Cc1ccn(-c2ccc3c(c2)NCC3(C)C)c(=O)c1-c1ccc2nc(N)ncc2c1 [Example 15, 3-(2-amino-6-quinazolinyl)-1-(3,3-dimethyl-2,3-dihydro-1H-indol-6-yl)-4-methyl-2(1H)-pyridinone] | 0.0194 µM | 0.0047 µM | – |
| Cc1ccn(CC(C)C)c(=O)c1-c1ccc2nc(N)ncc2c1 [Example 49, 3-(2-aminoquinazolin-6-yl)-1-isobutyl-4-methylpyridin-2(1H)-one] | – | 2.25 µM | – |
| Cc1ccn(CCN(C)C)c(=O)c1-c1ccc2nc(N)ncc2c1 [Example 55, 3-(2-aminoquinazolin-6-yl)-1-(2-(dimethylamino)ethyl)-4-methylpyridin-2(1H)-one] | – | 1.58 µM | – |
| Cc1ccn(-c2ccc(F)c(F)c2)c(=O)c1-c1ccc2nc(N)ncc2c1 [Example 39, 3-(2-aminoquinazolin-6-yl)-1-(3,4-difluorophenyl)-4-methylpyridin-2(1H)-one] | 0.063 µM | 0.048 µM | – |
| Cc1ccn(-c2ccc(Cl)c(F)c2)c(=O)c1-c1ccc2nc(N)ncc2c1 [Example 44, 3-(2-aminoquinazolin-6-yl)-1-(4-chloro-3-fluorophenyl)-4-methylpyridin-2(1H)-one] | – | – | IC50 (c-kit kinase enzyme; [2]): 0.0597 µM |
| Cc1ccn(-c2ccc(N3CCN(C(=O)OC(C)(C)C)CC3)cc2)c(=O)c1-c1ccc2nc(N)ncc2c1 [Example 36, tert-butyl 4-(4-(3-(2-aminoquinazolin-6-yl)-4-methyl-2-oxopyridin-1(2H)-yl)phenyl)piperazine-1-carboxylate] | – | 1.37 µM | – |
| Cc1ccn(CC2CCC2)c(=O)c1-c1ccc2nc(N)ncc2c1 [Example 48, 3-(2-aminoquinazolin-6-yl)-1-(cyclobutylmethyl)-4-methylpyridin-2(1H)-one] | – | 1.41 µM | – |
| Cc1ccn(CCn2cccn2)c(=O)c1-c1ccc2nc(N)ncc2c1 [Example 60, 1-(2-(1H-pyrazol-1-yl)ethyl)-3-(2-aminoquinazolin-6-yl)-4-methylpyridin-2(1H)-one] | – | 0.176 µM | – |
| COCCn1ccc(C)c(-c2ccc3nc(N)ncc3c2)c1=O [Example 56, 3-(2-aminoquinazolin-6-yl)-1-(2-methoxyethyl)-4-methylpyridin-2(1H)-one] | – | 2.23 µM | – |
| Cc1ccn(CC2CCCCC2)c(=O)c1-c1ccc2nc(N)ncc2c1 [Example 47, 3-(2-aminoquinazolin-6-yl)-1-(cyclohexylmethyl)-4-methylpyridin-2(1H)-one] | – | 0.132 µM | – |
| Cc1ccn(-c2cccc(C(F)(F)F)c2)c(=O)c1-c1ccc2nc(N)ncc2c1 [Example 20, 3-(2-amino-6-quinazolinyl)-4-methyl-1-(3-(trifluoromethyl)phenyl)-2(1H)-pyridinone] | 0.0279 µM | – | – |
| CC(=O)c1ccc(-n2ccc(C)c(-c3ccc4nc(N)ncc4c3)c2=O)cc1 [Example 28, 1-(4-acetylphenyl)-3-(2-aminoquinazolin-6-yl)-4-methylpyridin-2(1H)-one] | – | – | IC50 (c-kit kinase enzyme; [2]): 0.02 µM |
